Where two headings read alike, the source gives them in different places.
Legend:
PM-LC = experiment: Transwell assay of spontaneous migration of PM-LC; assay type: cell-based, mouse; conditions: for spontaneous migration of PM-LC: PM-LC from one-week LL2 TB mice, agent 10 min prior to plating, 1 hour
Source text: FIG. 7A-FIG. 7H. PM-LC spontaneous migration is dependent upon pannexin-1 hemichannels, extracellular ATP, and P2X and P2Y receptors. (FIG. 7A) Transwell assays evaluating the ability of PM-LC from one-week LL2 mice (left) (n=3) and RET mice (right) (n=5) to spontaneously migrate upon pannexin-1 hemichannel inhibition (panx). (FIG. 7B) Transwell assays evaluating the ability of neutrophils from control mice (n=8) and PM-LC from one-week LL2 mice (n=10) to spontaneously migrate upon apyrase treatment. (FIG. 7C-FIG. 7F) Transwell assays evaluating the ability of neutrophils from control mice (n=6) and PM-LC from one-week LL2 mice (n=7) to spontaneously migrate upon pan P2R inhibitor, P2XR, P2X1, P2Y, and A3R inhibition with suramin, NF449, MRS2179, AR-C118925XX, and MRS 1191, respectively. In addition, the ability of PM-LC from RET melanoma mice (n=3) to spontaneously migrate was also evaluated in the presence of P2Y inhibitors MRS2179 and AR-C118925XX. Individual values and mean and SD are shown. (FIG. 7G) Migration of BM neutrophils from control mice (n=3) and PMN-MDSC from 3-week LL2 mice (n=3) in response to stimulation with different concentrations of ADP. Mean and SD are shown. P values are calculated in two-sided Student's t-test. *−p<0.05; **−p<0.01; ***−p<0.001 (FIG. 7H) pMLC2 in BM neutrophils isolated from naive mice and one-week LL2 TB mice. Experiments were performed three times with similar results.
Unstimulated migration and chemotaxis was measured using a 3 μm pore transwell system (Neuro Probe Inc. or Sigma-Aldrich). Advanced RPMI with CXCL1 (BioLegend) or fMLP (Sigma-Aldrich) was placed in the bottom of the transwell, as indicated. 0.1×10^6 or 0.5×10^6 cells were incubated with pannexin inhibitor (^10Panx; Tocris), scrambled ^10Panx (Tocris), pan-P2XR inhibitor suramin (R&D Systems), P2X1 inhibitor NF 449 (Tocris), A3R inhibitor MRS 1191 (Santa Cruz), or apyrase (New England Biolabs) in Advanced RPMI for 10 min prior to being plated on top of the Neuro Probe system or Sigma-Aldrich system filter, respectively, and placed at 37° C., 5% CO2 for 1 hour. 10 μl media was taken from the bottom wells and counted by hemocytometer. The quantification of migrated neutrophils was done using the formula N=n×10^4×0.029 reflecting 29 µl media in the bottom well.

[1] = system: P2 receptors such as P2X3, P2Y1, and P2Y2, P2X1; conditions: cited from earlier work
[2] = system: BM neutrophils from control mice; experiment: Transwell assay of spontaneous migration of control neutrophils; assay type: cell-based, mouse
Source text: (§1) FIG. 7A-FIG. 7H. PM-LC spontaneous migration is dependent upon pannexin-1 hemichannels, extracellular ATP, and P2X and P2Y receptors. (FIG. 7A) Transwell assays evaluating the ability of PM-LC from one-week LL2 mice (left) (n=3) and RET mice (right) (n=5) to spontaneously migrate upon pannexin-1 hemichannel inhibition (panx). (FIG. 7B) Transwell assays evaluating the ability of neutrophils from control mice (n=8) and PM-LC from one-week LL2 mice (n=10) to spontaneously migrate upon apyrase treatment. […] In addition, the ability of PM-LC from RET melanoma mice (n=3) to spontaneously migrate was also evaluated in the presence of P2Y inhibitors MRS2179 and AR-C118925XX. […] P values are calculated in two-sided Student's t-test. *−p<0.05; **−p<0.01; ***−p<0.001 (FIG. 7H) pMLC2 in BM neutrophils isolated from naive mice and one-week LL2 TB mice. […]
(§2) Unstimulated migration and chemotaxis was measured using a 3 μm pore transwell system (Neuro Probe Inc. or Sigma-Aldrich). […] 10 μl media was taken from the bottom wells and counted by hemocytometer. The quantification of migrated neutrophils was done using the formula N=n×10^4×0.029 reflecting 29 µl media in the bottom well.

[3] = system: PMN-MDSC from 3-week LL2 mice; experiment: Transwell assay of migration of PMN-MDSC; assay type: cell-based, mouse; conditions: different concentrations of ADP
Source text: as §1, §2

pMLC2 = pMLC2 Western blot in PM-LC; assay type: cell-based, mouse; conditions: PM-LC from one-week LL2 TB mice; treated 1 hour before Western blot
Experimental: FIG. 15A-FIG. 15E. Expression of F-actin and genes associated with the glycolytic pathway. (FIG. 15A) Expression of indicated genes in neutrophils from control and RET melanoma mice measured in real-time quantitative PCR (n=3). Individual results for each mouse, mean and SD are shown. (FIG. 15B) F-actin was measured using flow cytometry before and after stimulation with CXCL1 or fMLP in BM neutrophils from indicated tumor models. Typical example of 4 experiments is shown. (FIG. 15C) F-actin in unstimulated cells evaluated by flow cytometry. Individual results for each mouse, mean and SD are shown. (FIG. 15D) F-actin in neutrophils and PMN-MDSC measured by flow cytometry (n=4). Individual results for each mouse, mean and SD are shown. Significant p values in two-sided Student's t-test are shown. (FIG. 15E) pMLC2 in neutrophils from control tumor-free and one-week LLC TB mice. Neutrophils were treated with vehicle alone or with P2Y2 inhibitor (ARC) for 1 hour before Western blot analysis. Two experiments with similar results were performed.

[4] = rats, compared to controls; cited from earlier work
[5] = mice, compared to controls; cited from earlier work
P2Y1 receptor = P2Y1 receptor (Homo sapiens, UniProt P47900); conditions: in vitro; cited from earlier work
Sequence of P2Y1 receptor (P47900 whole entry): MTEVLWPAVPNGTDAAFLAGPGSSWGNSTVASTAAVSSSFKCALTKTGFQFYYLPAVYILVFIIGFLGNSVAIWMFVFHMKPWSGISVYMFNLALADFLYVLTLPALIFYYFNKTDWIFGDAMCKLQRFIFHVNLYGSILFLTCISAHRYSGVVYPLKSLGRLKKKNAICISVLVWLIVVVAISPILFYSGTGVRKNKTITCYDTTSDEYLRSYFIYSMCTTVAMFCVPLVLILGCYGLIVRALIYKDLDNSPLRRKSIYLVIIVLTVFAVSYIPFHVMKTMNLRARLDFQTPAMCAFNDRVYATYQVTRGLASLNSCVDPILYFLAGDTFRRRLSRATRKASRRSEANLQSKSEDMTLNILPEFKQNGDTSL

O=C(Nc1cc(C(=O)Nc2ccc(S(=O)(=O)[O-])cc2S(=O)(=O)[O-])cc(C(=O)Nc2ccc(S(=O)(=O)[O-])cc2S(=O)(=O)[O-])c1)Nc1cc(C(=O)Nc2ccc(S(=O)(=O)[O-])cc2S(=O)(=O)[O-])cc(C(=O)Nc2ccc(S(=O)(=O)[O-])cc2S(=O)(=O)[O-])c1.[Na+].[Na+].[Na+].[Na+].[Na+].[Na+].[Na+].[Na+] [NF449, 4,4′,4″,4″′-[Carbonylbis(imino-5,1,3-benzenetriyl-bis(carbonylimino))]tetrakis-1,3-benzen edisulfonic acid octasodium salt]
inhibition of the ability of PM-LCs to spontaneously migrate (PM-LC; PM-LC from one-week LL2 mice): 50%
selectivity among P2 receptors [1]: highest selectivity towards P2X1

apyrase
spontaneous migration of control neutrophils ([2]; neutrophils from control mice, Transwell): completely abrogated
spontaneous migration of PM-LC (PM-LC): completely abrogated

Nc1ncnc2c1ncn2[C@@H]1O[C@H](COP(=O)(O)OP(=O)(O)O)[C@@H](O)[C@H]1O [ADP]
migration of control neutrophils on stimulation ([2]; BM neutrophils from control mice, different concentrations of ADP): significantly increased migration
migration of PMN-MDSC on stimulation [3]: significantly increased migration

Cc1ccc(C(=O)Nc2ccc(S(=O)(=O)O)c3cc(S(=O)(=O)O)cc(S(=O)(=O)O)c23)cc1NC(=O)c1cccc(NC(=O)Nc2cccc(C(=O)Nc3cc(C(=O)Nc4ccc(S(=O)(=O)O)c5cc(S(=O)(=O)O)cc(S(=O)(=O)O)c45)ccc3C)c2)c1 [suramin]
spontaneous migration of PM-LC (PM-LC): completely abrogated

CCOC(=O)C1=C(C)NC(c2ccccc2)=C(C(=O)OCc2ccccc2)C1C#Cc1ccccc1 (centres unmarked) [MRS 1191]
spontaneous migration of PM-LC (PM-LC): did not affect

Cc1ccc2c(c1)C=Cc1cc(C)ccc1C2c1cn(Cc2ccc(C(=O)Nc3nn[nH]n3)o2)c(=O)[nH]c1=S [AR-C118925XX, 5-[[5-(2,8-Dimethyl-5H-dibenzo[a,d]cyclohepten-5-yl)-3,4-dihydro-2-oxo-4-thioxo-1(2H)-pyrimidinyl]methyl]-N-2H-tetrazol-5-yl-2-furancarboxamide]
spontaneous migration of PM-LC (PM-LC): completely abrogated the increased spontaneous migration
up-regulation of pMLC2 in PM-LC (pMLC2): abrogated

CNc1ncnc2c1ncn2[C@H]1C[C@H](OP(=O)(O)O)[C@@H](COP(=O)(O)O)O1.N [MRS2179, 3′-adenylic acid, 2′-deoxy-N-methyl-5′-(dihydrogen phosphate), ammonium salt]
bleeding time [4]: prolongs bleeding time
spontaneous migration of PM-LC (PM-LC): completely abrogated the increased spontaneous migration
bleeding time [5]: prolongs bleeding time
pA2, inhibition of ADP-induced platelet shape change and aggregation (P2Y1 receptor): 6.55

From patent US20210346326A1, “COMPOSITIONS AND METHODS FOR ALTERING NEUTROPHIL MIGRATION AND METASTASIS” (The Wistar Institute of Anatomy and Biology, priority 2018, published 2021)
